Test [1] deals with T1, Prostaglandin G/H synthase 1 (Ovis aries) (UniProt P05979).
T1 sequence (whole entry): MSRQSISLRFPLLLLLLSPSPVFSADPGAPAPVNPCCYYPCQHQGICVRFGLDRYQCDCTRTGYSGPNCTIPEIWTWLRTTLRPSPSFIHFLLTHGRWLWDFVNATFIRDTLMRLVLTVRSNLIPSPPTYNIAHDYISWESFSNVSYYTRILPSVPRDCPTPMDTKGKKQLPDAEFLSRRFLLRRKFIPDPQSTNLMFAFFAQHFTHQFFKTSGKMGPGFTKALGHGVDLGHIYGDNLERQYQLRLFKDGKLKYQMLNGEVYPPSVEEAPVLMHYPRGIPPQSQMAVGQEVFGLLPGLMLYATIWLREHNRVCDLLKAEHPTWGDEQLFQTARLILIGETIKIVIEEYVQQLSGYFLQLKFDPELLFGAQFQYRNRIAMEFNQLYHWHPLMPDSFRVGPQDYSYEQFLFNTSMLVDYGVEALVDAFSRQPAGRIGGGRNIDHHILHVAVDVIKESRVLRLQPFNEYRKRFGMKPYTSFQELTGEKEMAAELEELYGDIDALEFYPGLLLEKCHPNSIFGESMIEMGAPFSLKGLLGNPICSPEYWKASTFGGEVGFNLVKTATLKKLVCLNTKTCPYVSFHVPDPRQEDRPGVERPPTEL
As to conditions: at 10 µM.
Description: In vitro inhibitory activity against prostaglandin G/H synthase 1 (COX-1) from the microsomal fraction of ram seminal vesicles at 10 uM concentration

The target in test [2] is T2, Prostaglandin G/H synthase 1 (Ovis aries, UniProt P05979).
T2 sequence (P05979 whole entry): T1 sequence (whole entry)
Description: In vitro inhibitory activity against prostaglandin G/H synthase 1 from the microsomal fraction of ram seminal vesicles.

The target in test [3] is T3, Prostaglandin G/H synthase 2 (Homo sapiens) (UniProt P35354).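 Further: in vitro assay on recombinant human COX-2 produced in baculovirus-infected Sf9 insect cells.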
T3 sequence (whole entry): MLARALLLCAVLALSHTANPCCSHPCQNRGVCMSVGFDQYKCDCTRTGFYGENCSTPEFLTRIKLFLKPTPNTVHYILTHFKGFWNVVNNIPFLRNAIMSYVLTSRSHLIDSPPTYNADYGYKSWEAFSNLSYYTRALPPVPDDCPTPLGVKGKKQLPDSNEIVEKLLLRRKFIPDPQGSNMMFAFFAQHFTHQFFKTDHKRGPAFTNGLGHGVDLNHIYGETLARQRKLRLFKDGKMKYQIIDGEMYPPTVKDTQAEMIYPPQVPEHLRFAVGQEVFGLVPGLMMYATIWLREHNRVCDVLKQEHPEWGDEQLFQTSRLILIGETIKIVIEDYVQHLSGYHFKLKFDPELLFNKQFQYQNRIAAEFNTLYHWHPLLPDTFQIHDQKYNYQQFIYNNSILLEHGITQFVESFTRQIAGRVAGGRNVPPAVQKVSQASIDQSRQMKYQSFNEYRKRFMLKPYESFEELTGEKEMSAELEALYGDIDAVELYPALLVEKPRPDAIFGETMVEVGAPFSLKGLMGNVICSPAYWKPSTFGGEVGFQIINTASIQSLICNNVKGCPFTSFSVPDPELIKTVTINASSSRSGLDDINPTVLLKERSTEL
As to conditions: Sf9; at 10 µM.
Description: In vitro inhibitory activity against human recombinant prostaglandin G/H synthase 2 (COX-2) at 10 uM expressed in sf-9 cells infected with baculovirus

Structures are written as SMILES.

What is called inhibition is the share of the control response that was lost under treatment. Low readings indicate a response near the control, high ones a response far below the control. The term IC50 denotes the concentration needed to halve the response being measured. For the compound `CS(=O)(=O)Nc1ccc(-c2cc(C(F)F)nn2-c2ccc(Cl)cc2)cc1`, the inhibition was found to be 0% in test [1] and 100% in test [3]. Moreover, the IC50 in test [2] came out at 63 µM.

`Cc1cc(-c2ccc(NS(C)(=O)=O)cc2)n(-c2ccc(Cl)cc2)n1`: the values for the inhibition in test [1] and in test [3] were 0% and 88%, respectively. In test [2], this compound displayed an IC50 of 100 µM.

On to `CS(=O)(=O)Nc1ccc(-c2cc(C(F)F)nn2-c2ccccc2Cl)cc1`, for which the results for the inhibition in test [1] and in test [3] were 66% and 22%, respectively.

In the case of `CNc1ccc(-n2nc(C(F)(F)F)cc2-c2ccc(NS(C)(=O)=O)cc2)cc1`, the inhibition in test [1] came to 14%; in test [3], 42%.

As for `CS(=O)(=O)Nc1ccc(-c2cc(C(F)(F)F)nn2-c2ccc(F)cc2)cc1`, the figures for the inhibition in test [1] and in test [3] were 6% and 65%, respectively. The compound also yielded a half-inhibitory concentration (IC50) in test [2] of 20.3 µM.

As for `Cc1cc(-c2ccc(NS(C)(=O)=O)cc2)n(-c2ccccc2)n1`, the figures for the inhibition in test [1] and in test [3] were 34% and 7%, respectively.

As to `CN(C)c1ccc(-n2nc(C(F)(F)F)cc2-c2ccc(NS(C)(=O)=O)cc2)cc1`, the values for the inhibition in test [1] and in test [3] were 85% and 100%, respectively. The IC50 in test [2] is 3.4 µM.

Regarding `CS(=O)(=O)Nc1ccc(-c2cc(C(F)F)nn2-c2ccc(F)cc2)cc1`, the inhibition in test [1] is 22%; in test [3] it was 62%.

For the compound `Cc1cc(-c2ccc(NS(C)(=O)=O)cc2)n(-c2ccc([N+](=O)[O-])cn2)n1`, the inhibition in test [1] stood at 0%; in test [3] it was 13%.

For `CC(=O)Nc1ccc(-c2cc(C(F)(F)F)nn2-c2ccc(Br)cc2)cc1`, the inhibition in test [1] amounted to 100%; in test [3], 87%. Moreover, the IC50 in test [2] is 3.5 µM.

For the compound `CS(=O)(=O)Nc1ccc(-c2cc(C(F)(F)F)nn2-c2ccc(Br)cc2)cc1`, the inhibition worked out at 88% in test [1] and 100% in test [3]. In addition, the IC50 in test [2] was found to be 4.9 µM.

On to `Cc1cc(-c2ccc(NS(C)(=O)=O)cc2)n(-c2ccc([N+](=O)[O-])cc2)n1`, for which the inhibition in test [1] is 40%; in test [3] it was 0%.

As for `CC(=O)Nc1ccc(-c2cc(C(F)(F)F)nn2-c2ccc(S(N)(=O)=O)cc2CO)cc1`, the results for the inhibition in test [1] and in test [3] were 59% and 0%, respectively.

Turning to `CC(=O)N(c1ccc(-c2cc(C(F)F)nn2-c2ccc(Cl)cc2)cc1)S(C)(=O)=O`, the results for the inhibition in test [1] and in test [3] were 66% and 17%, respectively.

As for `CS(=O)(=O)Nc1ccc(-c2cc(C(F)(F)F)nn2-c2ccc([N+](=O)[O-])cn2)cc1`, the results for the inhibition in test [1] and in test [3] were 0% and 13%, respectively.

`CCCC(=O)N(c1ccc(-c2cc(C(F)F)nn2-c2ccc(Cl)cc2)cc1)S(C)(=O)=O`: the figures for the inhibition in test [1] and in test [3] were 100% and 42%, respectively.

Consider `CS(=O)(=O)Nc1ccc(-c2cc(C(F)F)nn2-c2ccc(F)c(F)c2)cc1`, for which the inhibition in test [1] was 11%; in test [3], 36%.

On to `CC(=O)Nc1ccc(-c2cc(C)nn2-c2ccc(Br)cc2)cc1`, for which the inhibition in test [1] is 9%; in test [3], 80%. Further, the IC50 in test [2] was determined as 13.3 µM.

With `CS(=O)(=O)Nc1ccc(-c2cc(C(F)F)nn2-c2ccccc2)cc1`, the results for the inhibition in test [1] and in test [3] were 22% and 31%, respectively.

For `CCC(=O)N(c1ccc(-c2cc(C(F)(F)F)nn2-c2ccc(Cl)cc2)cc1)S(C)(=O)=O`, the values for the inhibition in test [1] and in test [3] were 18% and 65%, respectively.

Turning to `CS(=O)(=O)Nc1ccc(-c2cc(C(F)(F)F)nn2-c2ccccc2)cc1`, the figures for the inhibition in test [1] and in test [3] were 0% and 100%, respectively. Also, inhibition in test [2] was half-maximal at 85.3 µM (IC50).

In the case of `Cc1ccc(S(=O)(=O)Nc2ccc(-c3cc(C(F)(F)F)nn3-c3ccc(Cl)cc3)cc2)cc1`, the inhibition was found to be 0% in test [1] and 70% in test [3].

As to `CC(=O)N(c1ccc(-c2cc(C(F)(F)F)nn2-c2ccc(Cl)cc2)cc1)S(C)(=O)=O`, the inhibition was determined as 0% in test [1] and 63% in test [3].

`CS(=O)(=O)Nc1ccc(-c2cc(C(F)(F)F)nn2-c2ccc(Cl)cc2)cc1`: the inhibition was 25% in test [1] and 100% in test [3]. Besides, in test [2], the IC50 was determined as 15.6 µM.

In the case of `CS(=O)(=O)Nc1ccc(-c2cc(C(F)F)nn2-c2cccc(F)c2)cc1`, the inhibition was found to be 97% in test [1] and 67% in test [3].

In the case of `CS(=O)(=O)Nc1ccc(-c2cc(C(F)F)nn2-c2ccc(Cl)c(Cl)c2)cc1`, the inhibition in test [1] was 43%; in test [3], 71%.

Regarding `CS(=O)(=O)N(c1ccc(-c2cc(C(F)(F)F)nn2-c2ccc(Cl)cc2)cc1)S(C)(=O)=O`, the inhibition in test [1] was 14%; in test [3], 13%.

Turning to `CS(=O)(=O)Nc1ccc(-c2cc(C(F)(F)F)nn2-c2cccc(F)c2)cc1`, the inhibition in test [1] turned out to be 49%; in test [3], 70%.

As to `CCCC(=O)N(c1ccc(-c2cc(C(F)(F)F)nn2-c2ccc(Cl)cc2)cc1)S(C)(=O)=O`, the inhibition in test [1] came to 0%; in test [3], 62%.

Take `CS(=O)(=O)Nc1ccc(-c2cc(C(F)(F)F)nn2-c2ccc([N+](=O)[O-])cc2)cc1`: the figures for the inhibition in test [1] and in test [3] were 34% and 0%, respectively.

For the compound `CS(=O)(=O)Nc1ccc(-c2cc(C(F)(F)F)nn2-c2ccc(S(N)(=O)=O)cc2CO)cc1`, the inhibition in test [1] turned out to be 42%; in test [3] it was 12%.

Regarding `CS(=O)(=O)Nc1ccc(-c2cc(C(F)(F)F)nn2-c2ccccc2F)cc1`, the inhibition is 97% in test [1] and 89% in test [3].

On to `CS(=O)(=O)Nc1ccc(-c2cc(C(F)(F)F)nn2-c2cccc(Cl)c2)cc1`, for which the inhibition came to 96% in test [1] and 3% in test [3].

With `CCC(=O)N(c1ccc(-c2cc(C(F)F)nn2-c2ccc(Cl)cc2)cc1)S(C)(=O)=O`, the inhibition in test [1] is 100%; in test [3] it was 36%.

Turning to `CS(=O)(=O)Nc1ccc(-c2cc(C(F)F)nn2-c2ccc(S(N)(=O)=O)cc2CO)cc1`, the inhibition was determined as 100% in test [1] and 0% in test [3].

In the case of `Cc1cc(-c2ccc(NS(C)(=O)=O)cc2)n(-c2ccc(Br)cc2)n1`, the inhibition worked out at 10% in test [1] and 100% in test [3]. In test [2], this compound came in with an IC50 of 63 µM.

Take `CS(=O)(=O)Nc1ccc(-c2cc(C(F)(F)F)nn2-c2ccc(F)c(F)c2)cc1`: the inhibition in test [1] is 32%; in test [3] it was 59%.

`CS(=O)(=O)Nc1ccc(-c2cc(C(F)(F)F)nn2-c2ccc(N)cc2)cc1`: the inhibition is 22% in test [1] and 69% in test [3]. This compound also gave an IC50 in test [2] of 31.6 µM.

In the case of `CS(=O)(=O)Nc1ccc(-c2cc(C(F)F)nn2-c2ccccc2F)cc1`, the inhibition in test [1] is 90%; in test [3] it was 89%.

Take `Cc1cc(-c2ccc(NS(C)(=O)=O)cc2)n(-c2ccc(F)cc2)n1`: the inhibition is 0% in test [1] and 25% in test [3].

Take `CS(=O)(=O)Nc1ccc(-c2cc(C(F)(F)F)nn2-c2ccc(Cl)c(Cl)c2)cc1`: the inhibition in test [1] was found to be 10%; in test [3], 70%.

These data come from ChEMBL document CHEMBL1147488, “Methanesulfonamide group at position-4 of the C-5-phenyl ring of 1,5-diarylpyrazole affords a potent class of cyclooxygenase-2 (COX-2) inhibitors” (Bioorg Med Chem Lett, 2004).
